Values after ≈ are worked out from the molar mass of the structure shown. Read-outs that look alike come from different tables or passages of the source.
Tests used:
[1] = system: Enterococcus faecalis ATCC 29212 (VSE; QC); assay: Broth microdilution MIC (Table 2); type: cell-based
Method: (§1) Each peptide was formulated in PBS buffer prior to testing. Peptides of SEQ ID NO:5 and SEQ ID NO:8 were brought up in 100% DMSO with 0.002% polysorbate-80 at 1.28 mg/mL (40× the highest final test concentration of 32 mcg/mL). Final test concentration of DMSO was 2.5% in the assay at the first dilution for those two compounds.
(§2) Mueller Hinton II broth (MHB II; BD; Lot Nos. 6258541 and 7143896) was used for MIC testing of aerobic organisms. 0.002% polysorbate 80 (P80) was added to the test medium.
(§3) MIC values were determined using a broth microdilution procedure described by CLSI (1, 3). Automated liquid handlers (Multidrop 384, Labsystems, Helsinki, Finland; Biomek 2000 and Biomek FX, Beckman Coulter, Fullerton Calif.) were used to conduct serial dilutions and liquid transfers.
(§4) To prepare the drug mother plates, which would provide the serial peptide dilutions for the replicate daughter plates, the wells of columns 2-12 of standard 96-well microdilution plates (Costar 3795) were filled with 150 μl of the designated diluent for each row of peptide. The test articles and comparator compounds (300 μl at 40× the highest concentration to be tested) were dispensed into the appropriate wells in column 1. The Biomek 2000 was then used to make 2-fold serial dilutions in the mother plates from column 1 through column 11. The wells of Column 12 contained no drug and served as the organism growth control wells for the assay.
(§5) The daughter plates were loaded with 185 μL per well of MHB II using the Multidrop 384. The daughter plates were completed on the Biomek FX instrument which transferred 5 uL of peptide solution from each well of a mother plate to the corresponding well of each daughter plate in a single step. A standardized inoculum of each test organism was prepared per CLSI methods. The inoculum for each organism was dispensed into sterile reservoirs divided by length (Beckman Coulter), and the Biomek 2000 was used to inoculate the plates. Daughter plates were placed on the Biomek 2000 work surface in reverse orientation so that inoculation took place from low to high drug concentration. The plates were then inoculated with 10 μL of the inoculum resulting in a final cell density of approximately 5×10^5 CFU/mL, per well.
(§6) Plates were stacked 3-4 high, covered with a lid on the top plate, placed in plastic bags, and incubated at 35° C. for 16 to 20 hrs. Following incubation, the microplates were removed from the incubator and viewed from the bottom using a plate viewer. […] The MIC was read and recorded as the lowest concentration of peptide that inhibited visible growth of the organism.

[2] = system: Pseudomonas aeruginosa ATCC 27853 (non-MDR; QC); assay: Broth microdilution MIC (Table 2); type: cell-based
Method: as §1, §2, §3, §4, §5, §6

[3] = system: Enterococcus faecalis ATCC 700802 (V583 VRE); assay: Broth microdilution MIC (Table 2); type: cell-based
Method: as §1, §2, §3, §4, §5, §6

[4] = system: Acinetobacter baumannii ATCC 19606 (non-MDR); assay: Broth microdilution MIC (Table 2); type: cell-based
Method: as §1, §2, §3, §4, §5, §6

[5] = system: Escherichia coli ATCC 25922 (QC); assay: Broth microdilution MIC (Table 2); type: cell-based; conditions: ATCC25922
Method: as §1, §2, §3, §4, §5, §6

[6] = system: Streptococcus agalactiae ATCC 13813; assay: Broth microdilution MIC (Table 2); type: cell-based
Method: as §1, §2, §3, §4, §5, §6

[7] = system: Streptococcus pyogenes ATCC 49399; assay: Broth microdilution MIC (Table 2); type: cell-based
Method: as §1, §2, §3, §4, §5, §6

[8] = system: Acinetobacter baumannii ATCC BAA-1797 (MDR); assay: Broth microdilution MIC (Table 2); type: cell-based
Method: as §1, §2, §3, §4, §5, §6

[9] = system: Escherichia coli ATCC 35218 (ESBL); assay: Broth microdilution MIC (Table 2); type: cell-based; conditions: ATCC35218
Method: as §1, §2, §3, §4, §5, §6

[10] = system: Pseudomonas aeruginosa ATCC BAA-2109 (MDR); assay: Broth microdilution MIC (Table 2); type: cell-based; conditions: ATCCBAA2109
Method: as §1, §2, §3, §4, §5, §6

[11] = system: Staphylococcus aureus ATCC 29213 (MSSA; QC); assay: Broth microdilution MIC (Table 2); type: cell-based
Method: as §1, §2, §3, §4, §5, §6

[12] = system: Klebsiella pneumoniae isolates (n = 101); assay: Broth microdilution MIC, clinical isolate panel; type: cell-based; conditions: Klebsiella pneumoniae (n = 101)
Method: (§7) Comparator antibiotics were supplied by Micromyx, and stock solutions were prepared on the first day of testing using solvents recommended by CLSI (1). Stock solutions of all compounds were made at 40× the final testing concentration and stored at −80° C. prior to testing. Information regarding compound source, catalog and lot number, testing concentrations and drug diluent for the comparators and test agent are detailed below in Table 3.
(§8) The test organisms evaluated in this study consisted of clinical isolates from the Micromyx Repository and reference isolates from the American Type Culture Collection (ATCC; Manassas, Va.). The clinical isolates were obtained from USA hospitals. Upon initial receipt at Micromyx, the organisms were sub-cultured onto an appropriate agar medium. Following incubation, colonies were harvested from these plates and cell suspensions prepared and frozen at −80° C. with a cryoprotectant. Prior to testing, the isolates were streaked from frozen vials onto Trypticase Soy Agar with 5% sheep blood (Becton Dickenson [BD]; Sparks, Md.; Lot Nos. 7173618, 7166759, 7208688, 72144895, 7228505 and Remel Lenexa, Kans. Lot No. 212574). Plates were incubated at 35° C. overnight.
(§9) Mueller Hinton II broth (MHB II; BD; Lot Nos. 6258541 and 7143896) was used for MIC testing of aerobic organisms.
as §3
as §4, with “drug” for “peptide”, “drug.” for “peptide.”
as §5, with “µL” for “uL”, “drug” for “peptide”, “methods (1).” for “methods.”, “concentration.” for “concentration. The plates were then inoculated with 10 μL of the inoculum resulting in a final cell density of approximately 5×10^5 CFU/mL, per well.”
as §6, with “drug” for “peptide”
(§10) Clinical breakpoints to determine percent resistance within a given organism group were obtained from CLSI (3), with the exception of colistin for K. pneumoniae, Enterobacter spp., and E. coli, which are only available from EUCAST.

[13] = system: Pseudomonas aeruginosa isolates (n = 109); assay: Broth microdilution MIC, clinical isolate panel; type: cell-based; conditions: for % R (percent of isolates resistant, clinical breakpoints): Pseudomonas aeruginosa (n = 109)
Method: as §7, §8, §9, §3
as §4, with “drug” for “peptide”, “drug.” for “peptide.”
as §5, with “µL” for “uL”, “drug” for “peptide”, “methods (1).” for “methods.”, “concentration.” for “concentration. The plates were then inoculated with 10 μL of the inoculum resulting in a final cell density of approximately 5×10^5 CFU/mL, per well.”
as §6, with “drug” for “peptide”
as §10

[14] = system: Acinetobacter spp. isolates (n = 104); assay: Broth microdilution MIC, clinical isolate panel; type: cell-based; conditions: Acinetobacter spp. (n = 104)
Method: as §7, §8, §9, §3
as §4, with “drug” for “peptide”, “drug.” for “peptide.”
as §5, with “µL” for “uL”, “drug” for “peptide”, “methods (1).” for “methods.”, “concentration.” for “concentration. The plates were then inoculated with 10 μL of the inoculum resulting in a final cell density of approximately 5×10^5 CFU/mL, per well.”
as §6, with “drug” for “peptide”
as §10

[15] = system: Escherichia coli isolates (n = 101); assay: Broth microdilution MIC, clinical isolate panel; type: cell-based; conditions: Escherichia coli (n = 101)
Method: as §7, §8, §9, §3
as §4, with “drug” for “peptide”, “drug.” for “peptide.”
as §5, with “µL” for “uL”, “drug” for “peptide”, “methods (1).” for “methods.”, “concentration.” for “concentration. The plates were then inoculated with 10 μL of the inoculum resulting in a final cell density of approximately 5×10^5 CFU/mL, per well.”
as §6, with “drug” for “peptide”
as §10

[16] = system: Enterobacter spp. isolates (n = 102); assay: Broth microdilution MIC, clinical isolate panel; type: cell-based, Enterobacter aerogenes and E. cloacae; conditions: Enterobacter spp. (n = 102)
Method: as §7, §8, §9, §3
as §4, with “drug” for “peptide”, “drug.” for “peptide.”
The daughter plates were loaded with 185 μL per well of MHB II using the Multidrop 384. The daughter plates were completed on the Biomek FX instrument which transferred 5 µL of drug solution from each well of a mother plate to the corresponding well of each daughter plate in a single step. […]
Plates were stacked 3-4 high, covered with a lid on the top plate, placed in plastic bags, and incubated at 35° C. for 16 to 20 hrs. […] The MIC was read and recorded as the lowest concentration of drug that inhibited visible growth of the organism. […]

[17] = system: Staphylococcus aureus NRS382 (USA100; HA-MRSA); assay: Broth microdilution MIC (Table 2); type: cell-based
Method: as §1, §2, §3, §4, §5, §6

[18] = system: Streptococcus pneumoniae ATCC 49619 (QC); assay: Broth microdilution MIC (Table 2); type: cell-based
Method: as §1, §2, §3, §4, §5, §6

[19] = system: Enterococcus faecium ATCC 51559 (VRE); assay: Broth microdilution MIC (Table 2); type: cell-based
Method: as §1, §2, §3, §4, §5, §6

[20] = system: Staphylococcus aureus ATCC 43300 (MRSA); assay: Broth microdilution MIC (Table 2); type: cell-based
Method: as §1, §2, §3, §4, §5, §6

## C[C@@H](O)[C@H]1C(=O)N2C(C(=O)O)=C(S[C@@H]3CN[C@H](C(=O)N(C)C)C3)[C@H](C)[C@H]12 [Meropenem]
[1]; ATCC29212, read-out: MIC
  MIC: 4 µg/mL (≈ 10.4 µM)
[2]; ATCC27853, read-out: MIC
  MIC: 0.25 µg/mL (≈ 0.652 µM)
[3]; read-out: MIC
  MIC: 4 µg/mL (≈ 10.4 µM)
[4]; ATCC19606, read-out: MIC
  MIC: 0.5 µg/mL (≈ 1.3 µM)
[5]
  MIC: 0.015 µg/mL (≈ 0.0391 µM)
[6]; ATCC13813, read-out: MIC
  MIC: 0.008 µg/mL (≈ 0.0209 µM)
[7]; ATCC49399, read-out: MIC
  MIC: ≤ 0.004 µg/mL
[8]; ATCCBAA1797, read-out: MIC
  MIC: 0.25 µg/mL (≈ 0.652 µM)
[9]
  MIC: 0.015 µg/mL (≈ 0.0391 µM)
[10]
  MIC: 0.015 µg/mL (≈ 0.0391 µM)
[11]; read-out: MIC
  MIC: 0.12 µg/mL (≈ 0.313 µM)
[12]
  % R (percent of isolates resistant, clinical breakpoints): Fifty percent
  MIC50: 4 µg/mL (≈ 10.4 µM)
  MIC90: > 8 µg/mL
[12]; read-out: Mode (MIC)
  MIC: > 8 µg/mL
[13]; Pseudomonas aeruginosa
  MIC50: 0.5 µg/mL (≈ 1.3 µM)
  MIC90: > 8 µg/mL
[13]
  % R (percent of isolates resistant, clinical breakpoints): 20%
[13]; Pseudomonas aeruginosa, read-out: Mode (MIC)
  MIC: 0.25 µg/mL (≈ 0.652 µM)
[14]
  MIC50: > 8 µg/mL
  MIC90: > 8 µg/mL
[14]; read-out: Mode (MIC)
  MIC: > 8 µg/mL
[15]
  % R (percent of isolates resistant, clinical breakpoints): 1%
  MIC50: 0.015 µg/mL (≈ 0.0391 µM)
  MIC90: 0.03 µg/mL (≈ 0.0782 µM)
[15]; read-out: Mode (MIC)
  MIC: 0.015 µg/mL (≈ 0.0391 µM)
[16]
  % R (percent of isolates resistant, clinical breakpoints): 3.9%

## Colistin
[1]
  MIC: >32 µg/mL
[2]
  MIC: 0.25 µg/mL
[3]
  MIC: >32 µg/mL
[4]
  MIC: 0.25 µg/mL
[6]; ATCC13813
  MIC: >32 µg/mL
[7]
  MIC: >32 µg/mL
[8]
  MIC: 0.25 µg/mL
[17]
  MIC: >32 µg/mL
[11]
  MIC: >32 µg/mL
[18]
  MIC: >32 µg/mL
[19]
  MIC: >32 µg/mL
[20]
  MIC: >32 µg/mL
[12]
  % R (percent of isolates resistant, clinical breakpoints): 27.7%
[13]
  % R (percent of isolates resistant, clinical breakpoints): 7.3%
[14]
  % R (percent of isolates resistant, clinical breakpoints): 20.2%
[15]
  % R (percent of isolates resistant, clinical breakpoints): 0%
[16]
  % R (percent of isolates resistant, clinical breakpoints): 5.8%

Source: patent publication US20200071361A1, “ENGINEERED ANTIMICROBIAL AMPHIPHILIC PEPTIDES AND METHODS OF USE” (priority 2017, published 2020)
